How the values were obtained:
Assay type in all cases: cell-based
[1] = target: T1, mouse SMO^WT (Mus musculus, UniProt P56726); assay: Mouse assay: Gli1 qPCR in MEF cells stably expressing mouse SMO WT; settings: mSHh-treated, 24 hours; for IC50: Gli1 inhibition by qPCR, read-out: Mouse WT pIC50 (converted); for Mouse WT % Inh: percentage Gli1 inhibition
T1 construct: expressed in transfected cells
Experimental: (§1) Cell culture. All materials were purchased from Sigma-Aldrich, unless otherwise stated.
(§2) Compound treatment. […] After 1 hour incubation, cells were treated with assay medium containing mSHh prepared at 2.5× of final assay concentrations specified in the text and incubated for a further 24 hours at 37′C in a humidified 95% air/5% CO2 atmosphere prior to qPCR analysis.
(§3) Cell lysis and one-step qPCR. The Cells-to-CT™ 1-Step TaqMan® Kit was used in conjunction with TaqMan primer-probe assays for the detection of Gli1 (FAM, Mm00494654_m1) and Gusb (VIC, Mm01197698_m1) genes (all purchased from Life Technologies). Following 24 hours cell treatment, spent medium was removed and cells were washed with PBS before the application of lysis and stop solution as per manufacturer's instructions. The qPCR reactions were run in a 384-well PCR plate using master mix prepared according to manufacturer's instructions and cell lysate samples from treatment wells. Real-time PCR amplification was detected using the Bio-Rad CFX384 Touch PCR system. Four experimental replicates (two cell replicates and two qPCR replicates) were performed for each compound concentration tested. Real-time data were analysed using the CFX Maestro software (Bio-Rad) and obtained expression values were converted to percentage Gli1 inhibition by normalising to the average Gli1 expression of mSHh-treated control samples.

[2] = target: T2, mouse SMO^W535L (Mus musculus, UniProt P56726, W539L); assay: Mouse assay: Gli1 qPCR in MEF cells stably expressing mouse SMO W535L; settings: mSHh-treated, 24 hours; for IC50: Gli1 inhibition by qPCR, read-out: Mouse W535L pIC50 (converted); for Mouse W535L % Inh: percentage Gli1 inhibition
T2 construct: expressed in transfected cells
Experimental: as §1, §2, §3

[3] = target: T3, mouse SMO^D473H (Mus musculus, UniProt P56726, D477H); assay: Mouse assay: Gli1 qPCR in MEF cells stably expressing mouse SMO D473H; settings: mSHh-treated, 24 hours; for IC50: Gli1 inhibition by qPCR, read-out: Mouse D473H pIC50 (converted); for Mouse D473H % Inh: percentage Gli1 inhibition
T3 construct: expressed in transfected cells
Experimental: as §1, §2, §3

T3 sequence (P56726 33-793 D477H): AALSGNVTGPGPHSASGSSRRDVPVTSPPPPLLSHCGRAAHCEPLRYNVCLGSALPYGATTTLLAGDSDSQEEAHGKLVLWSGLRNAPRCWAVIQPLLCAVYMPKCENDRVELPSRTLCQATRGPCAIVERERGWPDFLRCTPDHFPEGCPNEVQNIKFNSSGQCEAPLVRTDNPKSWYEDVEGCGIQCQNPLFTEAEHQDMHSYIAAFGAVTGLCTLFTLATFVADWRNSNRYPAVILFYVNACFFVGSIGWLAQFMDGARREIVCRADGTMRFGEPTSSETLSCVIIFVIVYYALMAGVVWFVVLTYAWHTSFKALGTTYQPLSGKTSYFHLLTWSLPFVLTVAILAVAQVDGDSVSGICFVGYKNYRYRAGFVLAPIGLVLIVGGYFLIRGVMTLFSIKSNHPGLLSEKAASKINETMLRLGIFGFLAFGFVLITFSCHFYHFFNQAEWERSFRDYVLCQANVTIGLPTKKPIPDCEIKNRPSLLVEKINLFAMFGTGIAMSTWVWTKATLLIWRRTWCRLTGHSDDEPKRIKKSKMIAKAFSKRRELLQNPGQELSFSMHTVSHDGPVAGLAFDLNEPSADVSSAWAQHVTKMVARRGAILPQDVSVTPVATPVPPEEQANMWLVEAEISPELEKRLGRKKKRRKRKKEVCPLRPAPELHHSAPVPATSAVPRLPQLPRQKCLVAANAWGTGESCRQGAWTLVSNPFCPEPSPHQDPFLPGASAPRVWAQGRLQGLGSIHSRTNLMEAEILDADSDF
T1 sequence (P56726 33-793): as the sequence (P56726 33-793 D477H) above, with H445D counted along it
T2 sequence (P56726 33-793 W539L): as the sequence (P56726 33-793 D477H) above, with H445D, W507L counted along it

Compound	IC50 [1]	Mouse WT % Inh [1]	IC50 [2]	Mouse W535L % Inh [2]	IC50 [3]	Mouse D473H % Inh [3]
O=C(Nc1ccc(-c2nc(C3CC3)n[nH]2)cc1)c1cccc(CN2CCSCC2)c1 [Example 1-1, N-[4-(3-cyclopropyl-1H-1,2,4-triazol-5-yl)phenyl]-3-(thiomorpholin-4-ylmethyl)benzamide]	20 nM	99.4%	251 nM	66.8%	200 nM	99.3%
CC1(C)CN(Cc2cccc(C(=O)Nc3ccc(-c4nc(C5CC5)n[nH]4)cc3)c2)CCS1(=O)=O [Example 1-3, N-[4-(3-cyclopropyl-1H-1,2,4-triazol-5-yl)phenyl]-3-[(2,2-dimethyl-1,1-dioxo-1,4-thiazinan-4-yl)methyl]benzamide]	20 nM	99.4%	158 nM	62.6%	63.1 nM	99.7%
O=C(Nc1ccc(-c2nc(C3CC3)n[nH]2)cc1)c1cc(CN2CCS(=O)(=O)CC2)ccc1F [Example 2-1, N-[4-(5-Cyclopropyl-1H-1,2,4-triazol-3-yl)phenyl]-5-[(1,1-dioxo-1,4-thiazinan-4-yl)methyl]-2-fluorobenzamide]	15.8 nM	96.5%	79.4 nM	68.2%	200 nM	95.3%
O=C(Nc1ccc(-c2nc(C3CC3)n[nH]2)cc1)c1ccc(F)c(CN2CCS(=O)(=O)CC2)c1 [Example 2-3, N-[4-(5-Cyclopropyl-1H-1,2,4-triazol-3-yl)phenyl]-3-[(1,1-dioxo-1,4-thiazinan-4-yl)methyl]-4-fluorobenzamide]	20 nM	94.4%	79.4 nM	76.5%	158 nM	93.9%
O=C(Nc1ccc(-c2nc(C3CC3)n[nH]2)cc1)c1ccc(Cl)c(CN2CCS(=O)(=O)CC2)c1 [Example 2-5, 4-Chloro-N-[4-(5-cyclopropyl-1H-1,2,4-triazol-3-yl)phenyl]-3-[(1,1-dioxo-1,4-thiazinan-4-yl)methyl]benzamide]	15.8 nM	95.5%	100 nM	72.2%	158 nM	94.4%
CC(C)c1n[nH]c(-c2ccc(NC(=O)c3cccc(CN4CCS(=O)(=O)CC4)c3)cc2)n1.Cl [Example 3-1, 3-[(1,1-dioxo-1,4-thiazinan-4-yl)methyl]-N-[4-(3-propan-2-yl-1H-1,2,4-triazol-5-yl)phenyl]benzamide]	20 nM	99.1%	200 nM	77.1%	158 nM	96.6%
CC(C)(C)c1n[nH]c(-c2ccc(NC(=O)c3cccc(CN4CCS(=O)(=O)CC4)c3)cc2)n1 [Example 3-2, N-[4-(5-tert-Butyl-1H-1,2,4-triazol-3-yl)phenyl]-3-[(1,1-dioxo-1,4-thiazinan-4-yl)methyl]benzamide]	25.1 nM	97.3%	100 nM	41.6%	501 nM	91.0%
Cl.O=C(Nc1ccc(-c2nc(C3CCC3)n[nH]2)cc1)c1cccc(CN2CCS(=O)(=O)CC2)c1 [Example 3-4, N-[4-(3-Cyclobutyl-1H-1,2,4-triazol-5-yl)phenyl]-3-[(1,1-dioxo-1,4-thiazinan-4-yl)methyl]benzamide]	25.1 nM	98.0%	200 nM	63.0%	200 nM	97.7%
O=C(Nc1ccc(-c2nc(C3CCCCC3)n[nH]2)cc1)c1cccc(CN2CCS(=O)(=O)CC2)c1 [Example 3-6, N-[4-(3-Cyclohexyl-1H-1,2,4-triazol-5-yl)phenyl]-3-[(1,1-dioxo-1,4-thiazinan-4-yl)methyl]benzamide]	31.6 nM	98.4%	79.4 nM	51.7%	200 nM	98.4%
O=C(Nc1ccc(-c2nc(CC3CC3)n[nH]2)cc1)c1cccc(CN2CCS(=O)(=O)CC2)c1 [Example 3-7, N-[4-[3-(Cyclopropylmethyl)-1H-1,2,4-triazol-5-yl]phenyl]-3-[(1,1-dioxo-1,4-thiazinan-4-yl)methyl]benzamide]	25.1 nM	98.5%	200 nM	70.7%	200 nM	97.3%
O=C(Nc1ccc(-c2nc(C3CCN(c4ccccc4)C3)n[nH]2)cc1)c1cccc(CN2CCS(=O)(=O)CC2)c1 (stereo not shown) [Example 3-8, 3-[(1,1-Dioxo-1,4-thiazinan-4-yl)methyl]-N-[4-[3-(1-phenylpyrrolidin-3-yl)-1H-1,2,4-triazol-5-yl]phenyl]benzamide]	20 nM	98.6%	100 nM	57.9%	158 nM	98.0%
O=C(Nc1ccc(-c2nc(C3CCCN(Cc4ccccc4)C3)n[nH]2)cc1)c1cccc(CN2CCS(=O)(=O)CC2)c1 (stereo not shown) [Example 3-9, N-[4-[3-(1-Benzylpiperidin-3-yl)-1H-1,2,4-triazol-5-yl]phenyl]-3-[(1,1-dioxo-1,4-thiazinan-4-yl)methyl]benzamide]	31.6 nM	95.1%	63.1 nM	63.2%	316 nM	93.8%
O=C(Nc1ccc(-c2nc(-c3cccc(F)c3)n[nH]2)cc1)c1cccc(CN2CCS(=O)(=O)CC2)c1 [Example 3-10, 3-[(1,1-Dioxo-1,4-thiazinan-4-yl)methyl]-N-[4-[3-(3-fluorophenyl)-1H-1,2,4-triazol-5-yl]phenyl]benzamide]	12.6 nM	99.1%	100 nM	63.9%	251 nM	97.9%
O=C(Nc1ccc(-c2nc(-c3cccc(Cl)c3)n[nH]2)cc1)c1cccc(CN2CCS(=O)(=O)CC2)c1 [Example 3-11, N-[4-[3-(3-Chlorophenyl)-1H-1,2,4-triazol-5-yl]phenyl]-3-[(1,1-dioxo-1,4-thiazinan-4-yl)methyl]benzamide]	10 nM	98.4%	501 nM	62.5%	100 nM	98.5%
Cc1oc(-c2ccc(NC(=O)c3ccc(Cl)c(CN4CCS(=O)(=O)CC4)c3)cn2)nc1Br [Example 5-1, N-[6-(4-bromo-5-methyl-1,3-oxazol-2-yl)pyridin-3-yl]-4-chloro-3-[(1,1-dioxo-1,4-thiazinan-4-yl)methyl]benzamide]	20 nM	99.3%	–	–	–	–
O=C(Nc1ccc(-c2cc(C3CC3)[nH]n2)nc1)c1ccc(Cl)c(CN2CCS(=O)(=O)CC2)c1 [Example 5-3, 4-Chloro-N-[6-(5-cyclopropyl-1H-pyrazol-3-yl)pyridin-3-yl]-3-[(1,1-dioxo-1,4-thiazinan-4-yl)methyl]benzamide]	63.1 nM	98.6%	–	–	–	–

Reference: patent publication US20250136559A1, “SMO MODULATOR COMPOUNDS” (OMASS THERAPEUTICS LIMITED, priority 2022, published 2025)
